Data set [1] concerns the target ALK tyrosine kinase receptor (Homo sapiens, UniProt Q9UM73). Kind of data set: Inhibition of wild type ALK (unknown origin).
The target in data set [2] is ALK tyrosine kinase receptor (Homo sapiens, UniProt Q9UM73, G1202R). As to the kind of experiment: Inhibition of ALK G1202R mutant (unknown origin).
Data set [3] is described as follows: Inhibition of ALK L1196M/G1202R mutant (unknown origin). More on the design: species or system Homo sapiens.
Data set [4] in a line: Metabolic stability in human liver microsomes assessed as clearance. The data set is classed as ADME, Microsome. The following applies: read-out: CLH.
Data set [5] is described as follows: Metabolic stability in human liver microsomes assessed as half life. The data set is classed as ADME, Microsome. On the technique in general: Liver microsomes are vesicles of endoplasmic reticulum, rich in cytochrome P450 enzymes.
The test system of another data set is KARPAS-299. Kind of data set: Antiproliferative activity against human KARPAS-299 cells assessed as cell growth inhibition by CCK-8 assay. A general note: Formazan colour is commonly taken as a measure of viable cells.
Data set [6] is described as follows: Antiproliferative activity against mouse Ba/F3 EML4-ALK-G1202R cells assessed as cell growth inhibition by CCK-8 assay. Format: functional, cell-based.
The test system of a further data set is BaF3. Kind of data set: Antiproliferative activity against EML4-ALK-L1196M/G1202R mutated mouse BaF3 cells assessed as cell growth inhibition by CCK-8 assay. The data set is classed as functional, cell-based.
Data set [7] is described as follows: Metabolic stability in human liver microsomes assessed as parent compound remaining measured after 60 mins. Format: ADME, Microsome. The following applies: read-out: Stability.

Chain of ALK tyrosine kinase receptor (Homo sapiens, UniProt Q9UM73) (Q9UM73 whole entry): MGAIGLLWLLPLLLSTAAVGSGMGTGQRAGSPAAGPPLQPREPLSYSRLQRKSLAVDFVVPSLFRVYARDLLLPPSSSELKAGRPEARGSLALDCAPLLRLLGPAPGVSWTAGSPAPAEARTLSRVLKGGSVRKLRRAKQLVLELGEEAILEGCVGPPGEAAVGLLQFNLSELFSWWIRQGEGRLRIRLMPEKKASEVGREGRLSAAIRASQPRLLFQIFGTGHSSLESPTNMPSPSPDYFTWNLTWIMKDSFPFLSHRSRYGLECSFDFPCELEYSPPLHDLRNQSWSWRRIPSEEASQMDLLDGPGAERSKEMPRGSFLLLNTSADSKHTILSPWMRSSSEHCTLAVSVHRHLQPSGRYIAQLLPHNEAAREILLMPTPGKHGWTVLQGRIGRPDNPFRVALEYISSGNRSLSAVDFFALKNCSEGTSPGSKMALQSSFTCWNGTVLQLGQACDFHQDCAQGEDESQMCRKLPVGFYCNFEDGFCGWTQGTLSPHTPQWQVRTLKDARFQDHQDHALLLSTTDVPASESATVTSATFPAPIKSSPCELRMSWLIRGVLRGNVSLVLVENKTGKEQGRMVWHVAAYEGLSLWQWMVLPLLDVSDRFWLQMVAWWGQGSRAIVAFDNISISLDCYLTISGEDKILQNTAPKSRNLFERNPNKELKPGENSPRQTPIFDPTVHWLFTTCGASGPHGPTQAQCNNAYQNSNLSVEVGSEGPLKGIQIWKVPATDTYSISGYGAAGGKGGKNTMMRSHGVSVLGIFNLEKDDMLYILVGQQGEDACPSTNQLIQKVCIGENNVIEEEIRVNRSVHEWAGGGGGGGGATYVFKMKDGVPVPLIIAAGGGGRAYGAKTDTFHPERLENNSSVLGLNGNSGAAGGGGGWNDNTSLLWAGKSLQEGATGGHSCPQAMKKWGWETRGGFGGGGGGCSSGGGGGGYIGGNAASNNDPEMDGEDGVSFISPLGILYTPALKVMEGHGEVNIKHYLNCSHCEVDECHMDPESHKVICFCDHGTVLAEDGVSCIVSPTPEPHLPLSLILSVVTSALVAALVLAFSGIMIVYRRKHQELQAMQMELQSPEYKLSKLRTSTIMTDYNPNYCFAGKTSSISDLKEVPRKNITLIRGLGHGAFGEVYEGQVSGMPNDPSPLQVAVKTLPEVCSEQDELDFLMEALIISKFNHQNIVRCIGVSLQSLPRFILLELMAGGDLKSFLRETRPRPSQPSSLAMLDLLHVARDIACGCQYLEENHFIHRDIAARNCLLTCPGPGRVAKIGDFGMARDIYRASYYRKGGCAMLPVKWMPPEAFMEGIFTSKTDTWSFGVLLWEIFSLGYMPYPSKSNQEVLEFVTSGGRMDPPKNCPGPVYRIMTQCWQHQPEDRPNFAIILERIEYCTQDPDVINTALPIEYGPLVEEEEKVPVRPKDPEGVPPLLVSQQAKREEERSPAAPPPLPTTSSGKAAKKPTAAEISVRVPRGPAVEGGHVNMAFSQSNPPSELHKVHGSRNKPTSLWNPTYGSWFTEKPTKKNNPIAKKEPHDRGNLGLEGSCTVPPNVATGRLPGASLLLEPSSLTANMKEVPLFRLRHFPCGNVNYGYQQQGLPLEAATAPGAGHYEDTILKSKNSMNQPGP
Chain of ALK tyrosine kinase receptor (Homo sapiens, UniProt Q9UM73, G1202R) (Q9UM73 19-1620 G1202R limits assumed): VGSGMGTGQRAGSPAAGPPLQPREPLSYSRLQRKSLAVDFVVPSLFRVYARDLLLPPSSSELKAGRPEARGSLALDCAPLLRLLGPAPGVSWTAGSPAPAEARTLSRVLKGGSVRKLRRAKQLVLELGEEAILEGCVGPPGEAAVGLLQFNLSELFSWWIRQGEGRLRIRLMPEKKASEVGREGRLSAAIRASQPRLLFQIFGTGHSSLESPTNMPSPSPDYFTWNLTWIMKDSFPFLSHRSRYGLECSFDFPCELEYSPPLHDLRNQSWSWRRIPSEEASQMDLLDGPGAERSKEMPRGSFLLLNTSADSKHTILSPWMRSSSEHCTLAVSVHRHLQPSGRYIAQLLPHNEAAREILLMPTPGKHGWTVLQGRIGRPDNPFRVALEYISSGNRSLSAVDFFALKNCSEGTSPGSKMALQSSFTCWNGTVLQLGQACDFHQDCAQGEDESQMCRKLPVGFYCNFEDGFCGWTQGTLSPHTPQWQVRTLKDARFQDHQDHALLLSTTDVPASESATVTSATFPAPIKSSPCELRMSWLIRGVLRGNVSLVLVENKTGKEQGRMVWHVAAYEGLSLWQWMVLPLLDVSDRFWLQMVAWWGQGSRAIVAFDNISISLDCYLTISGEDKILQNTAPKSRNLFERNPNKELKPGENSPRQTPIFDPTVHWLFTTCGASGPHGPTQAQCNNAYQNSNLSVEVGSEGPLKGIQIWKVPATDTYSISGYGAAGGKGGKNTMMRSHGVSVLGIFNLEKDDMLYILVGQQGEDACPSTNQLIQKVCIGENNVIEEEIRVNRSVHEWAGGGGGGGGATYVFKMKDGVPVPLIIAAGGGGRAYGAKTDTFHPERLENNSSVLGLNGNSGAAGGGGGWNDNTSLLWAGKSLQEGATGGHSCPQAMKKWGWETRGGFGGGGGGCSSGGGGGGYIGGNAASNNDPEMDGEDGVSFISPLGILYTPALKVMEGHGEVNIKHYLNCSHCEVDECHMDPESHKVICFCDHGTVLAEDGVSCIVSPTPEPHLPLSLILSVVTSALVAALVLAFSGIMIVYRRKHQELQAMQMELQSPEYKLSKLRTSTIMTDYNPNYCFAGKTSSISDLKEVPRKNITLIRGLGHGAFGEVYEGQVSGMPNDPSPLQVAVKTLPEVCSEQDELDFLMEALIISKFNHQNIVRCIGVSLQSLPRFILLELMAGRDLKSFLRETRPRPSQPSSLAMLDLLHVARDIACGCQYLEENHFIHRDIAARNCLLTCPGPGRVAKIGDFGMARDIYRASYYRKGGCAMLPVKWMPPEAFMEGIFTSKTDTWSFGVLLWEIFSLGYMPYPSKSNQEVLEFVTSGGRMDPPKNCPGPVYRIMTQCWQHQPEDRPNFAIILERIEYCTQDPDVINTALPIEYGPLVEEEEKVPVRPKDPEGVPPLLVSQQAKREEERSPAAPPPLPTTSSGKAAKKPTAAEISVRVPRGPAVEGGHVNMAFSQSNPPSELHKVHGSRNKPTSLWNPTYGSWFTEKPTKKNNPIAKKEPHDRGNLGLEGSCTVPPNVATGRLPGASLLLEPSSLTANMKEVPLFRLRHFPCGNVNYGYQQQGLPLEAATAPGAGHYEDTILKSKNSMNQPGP

As usually defined, the IC50 is the concentration needed to halve the response being measured. In the case of `CN1Cc2cc(F)ccc2OCC(C)(C)NC(=O)c2cnc3ccc1nn23`, the results for the half-inhibitory concentration (IC50) in data set [1], in data set [2] and in data set [3] were 25 nM, 19 nM and 95 nM, respectively.
For `CC1(C)COc2ccc(F)cc2CN(C2CCC2)c2ccc3ncc(n3n2)C(=O)N1`, in that order: 159 nM, 200 nM and 442 nM.
Taken in the same sequence, the figures for `C[C@H]1Nc2ccc3ncc(n3n2)C(=O)NC2(CCC2)COc2ccc(F)cc21` were 7.6 nM, 4.7 nM and 18 nM.
Regarding `C[C@H]1Nc2ccc3ncc(n3n2)C(=O)NCCOc2ccc(F)cc21`, the IC50 in data set [1] was 13 nM; in data set [2] it was 28 nM; in [3], 59 nM.
Broadly, the half-life is the time in which the quantity being followed falls by half. For the compound `C[C@H]1Nc2ccc3ncc(n3n2)C(=O)NC2(CC2)COc2ccc(F)cc21`, the microsomal CLint in [4] was 41 µL/min/mg. Also, the half-life in [5] was 33.8 min. Also, the IC50 was determined as 4.2 nM in [1]; 8 nM in data set [2]; 24 nM in data set [3]; 39 nM in the data set with KARPAS-299; 56 nM in [6]; 76 nM in the data set with BaF3. In data set [7], the remaining at 1 h was 28.8%.
As to `Cc1cc2ncc3n2nc1N[C@H](C)c1cc(F)ccc1OCC1(CC1)NC3=O`, the results for the IC50 in data set [1], in data set [2] and in [3] were 18 nM, 47 nM and 85 nM, respectively.
For the compound `C[C@H]1CNC(=O)c2cnc3ccc(nn23)N[C@H](C)c2cc(F)ccc2O1`, the IC50 came out at 5.1 nM in data set [1]; 11 nM in data set [2]; 22 nM in data set [3]; 72 nM in the data set on KARPAS-299; 84 nM in [6]; 147 nM in the data set with BaF3.
On to `C[C@@H]1Nc2ccc3ncc(n3n2)C(=O)NC2(CC2)COc2ccc(F)cc21`, for which the IC50 in [1] turned out to be 482 nM; in data set [2], 1000 nM.
For the compound `C=CC[C@H]1Nc2ccc3ncc(n3n2)C(=O)NC2(CC2)COc2ccc(F)cc21`, the IC50 in data set [1] was 9.7 nM; in data set [2] it was 64 nM; in data set [3], 34.4 nM.
For `CC1(C)COc2ccc(F)cc2CNc2ccc3ncc(n3n2)C(=O)N1`, in that order: 19 nM, 20 nM and 37 nM.
For `C[C@H]1Nc2ccc3ncc(n3n2)C(=O)NC(C)(C)COc2ccc(F)cc21`, in that order: 8.3 nM, 6.4 nM and 26 nM.
Taken in the same sequence, the figures for `CC1(C)COc2ccc(F)cc2CN(C2CC2)c2ccc3ncc(n3n2)C(=O)N1` were 77 nM, 82 nM and 309 nM.
Regarding `CCN1Cc2cc(F)ccc2OCC(C)(C)NC(=O)c2cnc3ccc1nn23`, the half-maximal inhibitory concentration (IC50) in [1] came out at 27 nM; in data set [2], 22 nM; in data set [3], 84 nM.
Regarding `CCC[C@H]1Nc2ccc3ncc(n3n2)C(=O)NC2(CC2)COc2ccc(F)cc21`, the IC50 in data set [1] was found to be 415 nM; in [2], 1000 nM.
Regarding `C[C@H]1Nc2ccc3ncc(n3n2)C(=O)NC2(CC2)COc2ccc(Cl)cc21`, the IC50 was determined as 29 nM in [1], 56 nM in data set [2] and 105 nM in data set [3].
Taken in the same sequence, the figures for `C[C@H]1Nc2ccc3ncc(n3n2)C(=O)NC2(CC2)COc2cc(F)ccc21` were 373 nM, 993 nM and 984 nM.
For `CC(C)N1Cc2cc(F)ccc2OCC(C)(C)NC(=O)c2cnc3ccc1nn23`, in that order: 99 nM, 145 nM and 328 nM.
For `C[C@H]1Nc2ccc3ncc(n3n2)C(=O)NC2(CC2)COc2ccccc21`, in that order: 27 nM, 98 nM and 173 nM.
In the case of `C[C@H]1CNC(=O)c2cnn3ccc(nc23)N[C@H](C)c2cc(F)ccc2O1` [REPOTRECTINIB], in [4], the microsomal CLint was 25.6 µL/min/mg. In addition, the half-life in data set [5] was 54.1 min. The IC50 in data set [3] worked out at 20 nM; in the data set on KARPAS-299 it was 40 nM; in data set [6], 164 nM; in the data set with BaF3, 208 nM. Moreover, the remaining at 1 h in [7] came out at 46.1%.

Source of the values: ChEMBL document CHEMBL5257114, “Discovery of imidazo[1,2-b]pyridazine macrocyclic derivatives as novel ALK inhibitors capable of combating multiple resistant mutants” (Bioorg Med Chem Lett, 2023).
